Patent publication US8197775B2, “Detection article having fluid control film” (priority 1999, dated 2012)
≈ marks a conversion by molar mass, not a printed value.

System: Escherichia coli ATCC 51813
Experiment: Minimum inhibitory concentration (MIC) test using microchannels, MUG fluorescence read-out
Type: cell-based
Conditions: ATCC51813, VRB media with MUG 0.5 mg/ml, 16 hours at 37° C., control tubes and microchannels
Description: Microchannel polyethylene films were heat embossed on a hydraulic press according to the procedure outlined in U.S. patent application Ser. No. 08/905,481. […] The channels were covered with ScotchPak #33 (3M Company) using an iron heated to 149 degrees C. (300 degrees F.), forming a series of capillary channels.
A dilution series of tetracycline was prepared in VRB media (7.0 g Bacto peptone, 3.0 g yeast extract, 1.5 g bile salts per liter) containing the fluorescent indicator methylumbelliferyl glucuronide (MUG, 0.5 mg/ml). The following tetracycline concentrations were prepared: 40, 4, 0.4, 0.04, and 0.004 micrograms/ml. Approximately 1 ml of each solution was placed in a test tube. A suspension of Escherichia coli ATCC 51813 (100 microliters of approximately 10^7 bacteria/ml) was added to each tube. A syringe was used to transfer each solution into adjacent microchannels (1.6 microliters/channel). Both the control tubes and the microchannel device were incubated for 16 hours at 37° C. After incubation the samples were observed under ultraviolet radiation.

With `CN(C)[C@@H]1C(O)=C(C(N)=O)C(=O)[C@@]2(O)C(O)=C3C(=O)c4c(O)cccc4[C@@](C)(O)[C@H]3C[C@@H]12` [tetracycline] the MIC was 4 µg/mL (≈ 9 µM).
